Experiments:
[1] = test system: SVR (ATCC CRL-2280, a murine endothelial cell line) tumor allograft; assay: In vivo phage display panning, angiosarcoma model; set-up: species or system mouse; conditions: tumors resected 24 h post phage injection, 3-4 rounds of panning
Description: (§1) To identify peptide sequences displaying homing potential to specific tumors or to the vasculature of specific tumors, in vivo phage display panning was performed. Utilizing commercially available M13-based phage libraries (PhD-7 Prod# E8100S and PhD-C7C E8120S, New England Biolabs, Ipswich, Mass.) phage were isolated that were enriched after 3-4 rounds of panning in different tumor models. These phage particles display surface peptides that potentially confer homing and cellular uptake capabilities.
Panning was conducted in SVR (ATCC CRL-2280, a murine endothelial cell line) tumor allograft bearing mice. Tumors were resected 24 h post phage injection.

[2] = test system: 4T1 (ATCC CRL-2539) tumor allograft; assay: In vivo phage display panning, breast carcinoma model, tumor cell homing phage; set-up: species or system mouse; conditions: tumors resected 24 h post phage injection, 3-4 rounds of panning
Description: as §1
Panning was conducted in 4T1 (ATCC CRL-2539) tumor allograft bearing mice. Tumors were resected 24 h post phage injection.

[3] = test system: 4T1 (ATCC CRL-2539) tumor allograft; assay: In vivo phage display panning, breast carcinoma model, tumor vascular homing phage; set-up: species or system mouse; conditions: tumors resected 5-7 h post phage injection, 3-4 rounds of panning
Description: as §1
Panning was conducted in 4T1 (ATCC CRL-2539) tumor allograft bearing mice. Tumors were resected 5-7 h post phage injection.

[4] = test system: MMTV-HER2/neu (YD) Id1−/− tumor cells; assay: MMTV-HER2/neu (YD) Id1−/− allograft model, osmotic pumps, with and without 17-AAG; type: in vivo, mouse
Source text: Proc Natl Acad Sci USA 100, 12337-42 (2003)), perhaps due to the requirement of Hsp90 for maintaining Hif1-alpha or HER2/neu stability. Id1-PCAOs were therefore tested in combination with 17-AAG in the MMTV-HER2/neu (YD) Id1-/- allograft model. The Id1-PCAO was delivered in this prolonged experiment via subcutaneously implanted osmotic pumps (7 nmol/d). 17-AAG was given by intraperitoneal injection according to an established protocol, on 3 consecutive days per week after tumor establishment. As controls, saline or the un-conjugated components of the Id1-PCAO (F3-peptide and Id1-AO each at 20 nmol/d) were administered. […] To further control for non-specific effects we repeated the experiment using the same tumor model and added […] which was delivered at the same rate as the Id1-PCAO (7 nmol/d) and the F3-peptide without addition of Id1-AO (20 nmol/d) as control substances. […] The decrease in Id1-positive cells after administration of Id1-PCAO alone was less dramatic than in the intravenous protocol described above. This might be due to the slight decrease in dosage and the changed route of administration (s.c. vs. i.v.). […] Alternatively, animals were implanted s.c. with osmotic pumps (Durect Corp., Cupertino, Calif.) that delivered 7 nmol/d Id1-PCAO (3.5 mg/kg BW) in TBS over a 14 day period. Controls received 20 nmol/d F3-peptide plus 20 nmol/d Id1-AO (in TBS) or TBS. 2×106 MMTV-HER2/neu (YD) Id1-/- tumor cells were injected into the left flank 24 h after implantation of the pumps. After the 14 days treatment period, pumps were replaced using a model with a work period of 7 days. […] Control animals received DMSO:EPL 1:1 i.p at the same schedule. Tumor size was measured using a calliper. Volume was calculated as V=(/6×longest diameter×perpendicular diameter2). Image acquisition and analysis: Epifluorescence, bright field and phase contrast images were acquired using Zeiss Axiostar 200 microscopes. Leica laser confocal microscopes were used for co-localisation studies. For quantification, large fields of the tissue sections were acquired using an automated image acquisition and montaging system (Zeiss Axiostar 200M microscope with MetaMorph Software, Molecular Devices, Sunnyvale, Calif.). […] Three or 4 large field images were used to quantify each section. Stained areas were quantified using MetaMorph or ImageJ software (http://rsb.info.nih.gov/ij/). Images were threshholded and stained area (CD31) was calculated or particles per field were counted (Id1 or Hif1 positive cells). To quantify extent of haemorrhage, H&E whole tumor sections were imaged with a 5× objective and evaluated using the colour threshold function of the Metamorph software.

[5] = test system: tumor endothelium of high-grade malignant glioma; assay: Accumulation of FITC-labeled Grp78-GMBS-ASId1 in high-grade malignant glioma mouse model; type: in vivo; conditions: retro-orbital injection, four hours post injection
Source text: In a further specific example, the therapeutic agent combines a Grp78 targeting peptide with an Id1 targeting antisense oligonucleotide. A therapeutic agent of this type was synthesized using the Grp-78 targeting peptide of Seq. ID No. 4, GMBS as the HBL, and Id1 antisense of Seq. ID No. 2, labeled with FITC and injected retro-orbitally into a mouse model with a high-grade malignant glioma. Four hours post injection the mouse was sacrificed, and tissue was processed for imaging.

Row | Compound | Frequency of enriched sequence [2] | Frequency of enriched sequence [3] | further results
1 | 10 (FPGGYTP; Angiosarcoma homing probe) [compound 10] | – | – | Frequency of enriched sequence [1]: 11/15
2 | 11 (MFEPVLP; Angiosarcoma homing probe) [compound 11] | – | – | Frequency of enriched sequence [1]: 1/15
3 | 12 (TLSKQST; Angiosarcoma homing probe) [compound 12] | – | – | Frequency of enriched sequence [1]: 1/15
4 | 13 (TSLKMQV; Angiosarcoma homing probe) [compound 13] | – | – | Frequency of enriched sequence [1]: 1/15
5 | 14 (ERVLMQV; Angiosarcoma homing probe) [compound 14] | – | – | Frequency of enriched sequence [1]: 1/15
6 | 15 (KWGSNNL; Breast Carcinoma homing probe) [compound 15] | 4/12 | – | –
7 | 16 (YSMPAPV; Breast Carcinoma homing probe) [compound 16] | 2/12 | – | –
8 | 17 (DSTRPHY; Breast Carcinoma homing probe) [compound 17] | 2/12 | – | –
9 | 18 (KYESAPT; Breast Carcinoma homing probe) [compound 18] | 1/12 | – | –
10 | 19 (TSMTSYR; Breast Carcinoma homing probe) [compound 19] | 1/12 | – | –
11 | 20 (EKNLTRP; Breast Carcinoma homing probe) [compound 20] | 1/12 | – | –
12 | 21 (HTPMALE; Breast Carcinoma homing probe) [compound 21] | 1/12 | – | –
13 | 22 (GHSKAMY; Breast carcinoma tumor vascular homing probe) [compound 22] | – | 4/12 | –
14 | 23 (GHGASIS; Breast carcinoma tumor vascular homing probe) [compound 23] | – | 1/12 | –
15 | 24 (NLLAPAG; Breast carcinoma tumor vascular homing probe) [compound 24] | – | 1/12 | –
16 | 25 (HDLPAVR; Breast carcinoma tumor vascular homing probe) [compound 25] | – | 1/12 | –
17 | 26 (AMPLPVP; Breast carcinoma tumor vascular homing probe) [compound 26] | – | 1/12 | –
18 | 27 (HESTWGP; Breast carcinoma tumor vascular homing probe) [compound 27] | – | 1/12 | –
19 | 28 (CDPRNPNWC; Breast carcinoma tumor vascular homing probe) [compound 28] | – | 1/12 | –
20 | 29 (CLPRHDPYC) [compound 29] | – | 1/12 | –
21 | 30 (CPAGQNAHC) [compound 30] | – | 1/12 | –
22 | C=CCNC1=C2C[C@@H](C)C[C@H](OC)[C@H](O)[C@@H](C)/C=C(\C)[C@H](OC(N)=O)[C@@H](OC)/C=C\C=C(/C)C(=O)NC(=CC1=O)C2=O [17-AAG, 17-(allylamino)-17-demethoxygeldanamycin] | – | – | tumor growth, agent alone ([4]; Id1-PCAO 7 nmol/d s.c. pumps, F3 and Id1-AO each 20 nmol/d, 17-AAG i.p. 3 consecutive days per week, FIG. 7): delayed tumor growth; Hif1-alpha expression ([4]; mouse, in vivo): counteracted this response; Id1-positive endothelial cells in the tumor, agent alone ([4]; mouse, in vivo): decrease of Id1-positive endothelial cells in the tumor; vascular density ([4]; mouse, in vivo): decreased vascular density
23 | Grp78-GMBS-ASId1: Grp-78 targeting peptide of Seq. ID No. 4, GMBS as the HBL, Id1 antisense of Seq. ID No. 2, labeled with FITC (chain WIFPWIQL; antisense gcaccagctccttgaggcgugag; GMBS linker, FITC label; GRP78 homing peptide; antisense oligonucleotide targeting ID1.) | – | – | accumulation in imaged tissue [5]: accumulate around tumor blood vessels; blood brain barrier crossing [5]: crossed the blood brain barrier

From patent US9393317B2, “Peptide-conjugated oligonucleotide therapeutic and method of making and using same” (Sloan-Kettering Institute for Cancer Research, priority 2008, dated 2016)
